Consider two compounds from ChEMBL document CHEMBL6087464, “Design, Synthesis, and Biological Evaluation of 3,4-Dihydroisoquinolin-1(2H)-one Derivatives as Protein Arginine Methyltransferase 5 Inhibitors for the Treatment of Non-Hodgkin's Lymphoma” (J Med Chem, 2025).

The test system of series [1] is Z-138. Nature of the series: Antiproliferative activity against human Z138 cells measured after 7 days by CellTiter-Glo luminescence cell viability assay. The settings on record: Z-138, 168 h. It is filed as functional, cell-based. (In ATP-based viability assays light output follows the ATP content of the culture.)
Series [2] is described as follows: Protein binding in Sprague-Dawley rat plasma. It is filed as ADME, cell-free. The settings on record: read-out: PPB (converted).
For a further series, the system named is MOLM-13. Nature of the series: Antiproliferative activity against human MOLM-13 cells measured after 4 to 5 days by CCK-8 assay. It is filed as functional, cell-based. (Tetrazolium assays rely on reduction of a dye to a coloured formazan, in cell work by metabolically active cells.)
Series [3] in a line: Protein binding in dog plasma. It is filed as ADME, cell-free, Canis lupus familiaris. The settings on record: read-out: PPB (converted).
The nature of series [4]: Toxicity in Sprague-Dawley rat assessed as structural changes in bone marrow at 31.25 to 125 mg/kg, po administered once a day for 14 days by H and E staining based analysis. It is filed as organism-based. The settings on record: in vivo, 336 h, dose 31.25-125 mg/kg, time 14 day.
Series [5] has as its target Protein arginine N-methyltransferase 5 (Homo sapiens) (UniProt O14744). Nature of the series: In vivo inhibition of PRMT5 in female SCID.BG nude mouse xenografted with human Z138 cells assessed as decrease in SmD3me2s level at 12.5 to 50 mg/kg, po administered twice a day for 21 days by Western blotting analysis. It is filed as functional, organism-based. The note with it: dose 12.5-50 mg/kg, time 21.0 day.

Series [6] has the same target. Nature of the series: Inhibition of PRMT5 in human Z138 cells assessed as decrease in symmetric dimethyl arginine level incubated for 48 hrs by Western blot analysis. It is filed as cell-based. The note with it: dose 0.005-5 µM.
For series [7], the system named is Z-138. Nature of the series: Antitumor activity against human Z138 cells xenografted in female SCID.BG nude mouse assessed as tumor growth inhibition at 25 mg/kg, po administered twice a day for 21 days relative to control. The note with it: Z-138, 504 h, time 21 day, read-out: TGI. It is filed as functional. On the technique in general: Xenograft models place foreign cells or tissue in a host animal.

Series [8] is described as follows: Toxicity in Sprague-Dawley rat assessed as structural changes in spleen at 31.25 to 125 mg/kg, po administered once a day for 14 days by H and E staining based analysis. It is filed as organism-based. The note with it: in vivo, 336 h, dose 31.25-125 mg/kg, time 14 day.
For another series, the target named is Cytochrome P450 2C8 (Homo sapiens, UniProt P10632). Nature of the series: Inhibition of CYP2C8 (unknown origin). It is filed as ADME.
Series [9] can be described thus: Metabolic stability in human liver microsomes assessed as half-life at 1 uM measured upto 240 mins. It is filed as ADME, Microsome.
The target in a further series is Cytochrome P450 2D6 (Homo sapiens, UniProt P10635). Nature of the series: Inhibition of CYP2D6 (unknown origin). It is filed as ADME.
The next series concerns T47D. Nature of the series: Antiproliferative activity against human T47D cells measured after 4 to 5 days by CCK-8 assay. It is filed as functional, cell-based.
Another series relates to A-427. Nature of the series: Antiproliferative activity against human A-427 cells measured after 4 to 5 days by CCK-8 assay. It is filed as functional, cell-based.
The test system of series [10] is Z-138. Nature of the series: Antitumor activity against human Z138 cells xenografted in female SCID.BG nude mouse assessed as tumor growth inhibition at 50 mg/kg, po administered twice a day for 21 days relative to control. The note with it: Z-138, 504 h, time 21 day, read-out: TGI. It is filed as functional.
Series [11] is described as follows: Metabolic stability in mouse liver microsomes assessed as half-life at 1 uM measured upto 240 mins. It is filed as ADME, Microsome.
A short description of series [12]: Protein binding in monkey plasma. It is filed as ADME, cell-free, Macaca mulatta. The settings on record: rhesus monkey, read-out: PPB (converted).
For series [13], the target named is T1, Cytochrome P450 3A4 (Homo sapiens, UniProt P08684). Nature of the series: Inhibition of CYP3A4 (unknown origin) using testosterone as substrate. It is filed as ADME.
Another series concerns the target Cytochrome P450 2C19 (Homo sapiens, UniProt P33261). Nature of the series: Inhibition of CYP2C19 (unknown origin). It is filed as ADME.
For series [14], the target named is PRMT5/MEP50 complex (Homo sapiens, UniProt O14744+Q9BQA1). Nature of the series: Binding affinity to PRMT5/MEP50 (unknown origin) assessed as dissociation rate constant (koff) by SPR analysis.
Series [15] in a line: Toxicity in Sprague-Dawley rat assessed as morphological changes in caecum at 31.25 to 125 mg/kg, po administered once a day for 14 days by H and E staining based analysis. It is filed as organism-based. The settings on record: in vivo, 336 h, dose 31.25-125 mg/kg, time 14 day.
For series [16], the target named is T1, Cytochrome P450 3A4. Nature of the series: Inhibition of CYP3A4 (unknown origin) using midazolam as substrate. It is filed as ADME.
The nature of series [17]: Toxicity in Sprague-Dawley rat assessed as morphological changes in bone marrow at 31.25 to 125 mg/kg, po administered once a day for 14 days by H and E staining based analysis. It is filed as organism-based. The note with it: in vivo, 336 h, dose 31.25-125 mg/kg, time 14 day.
Series [18] can be described thus: Toxicity in Sprague-Dawley rat assessed as structural changes in caecum at 31.25 to 125 mg/kg, po administered once a day for 14 days by H and E staining based analysis. It is filed as organism-based. The settings on record: in vivo, 336 h, dose 31.25-125 mg/kg, time 14 day.
The next series deals with NCI-H1299. Nature of the series: Antiproliferative activity against human NCI-H1299 cells measured after 4 to 5 days by CCK-8 assay. It is filed as functional, cell-based.
Series [19] concerns the target PRMT5/MEP50 complex (Homo sapiens, UniProt O14744). Nature of the series: Binding affinity to PRMT5/MEP50 (unknown origin) assessed as dissociation constant by SPR analysis. It is filed as protein-complex assay.

T1 sequence (P08684 whole entry): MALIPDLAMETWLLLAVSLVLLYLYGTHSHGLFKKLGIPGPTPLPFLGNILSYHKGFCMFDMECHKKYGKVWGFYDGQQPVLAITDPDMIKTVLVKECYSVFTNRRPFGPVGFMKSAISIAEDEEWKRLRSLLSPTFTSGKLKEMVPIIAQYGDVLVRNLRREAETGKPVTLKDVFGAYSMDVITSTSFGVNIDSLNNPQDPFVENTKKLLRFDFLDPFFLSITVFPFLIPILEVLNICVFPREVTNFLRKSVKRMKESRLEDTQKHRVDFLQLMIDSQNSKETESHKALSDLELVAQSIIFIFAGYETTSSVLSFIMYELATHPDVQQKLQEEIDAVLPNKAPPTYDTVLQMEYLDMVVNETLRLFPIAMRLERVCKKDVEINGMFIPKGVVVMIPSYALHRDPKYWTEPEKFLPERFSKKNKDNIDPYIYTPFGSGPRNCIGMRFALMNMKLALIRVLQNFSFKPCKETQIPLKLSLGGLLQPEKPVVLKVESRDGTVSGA
Protein arginine N-methyltransferase 5 (Homo sapiens), sequence (O14744 whole entry): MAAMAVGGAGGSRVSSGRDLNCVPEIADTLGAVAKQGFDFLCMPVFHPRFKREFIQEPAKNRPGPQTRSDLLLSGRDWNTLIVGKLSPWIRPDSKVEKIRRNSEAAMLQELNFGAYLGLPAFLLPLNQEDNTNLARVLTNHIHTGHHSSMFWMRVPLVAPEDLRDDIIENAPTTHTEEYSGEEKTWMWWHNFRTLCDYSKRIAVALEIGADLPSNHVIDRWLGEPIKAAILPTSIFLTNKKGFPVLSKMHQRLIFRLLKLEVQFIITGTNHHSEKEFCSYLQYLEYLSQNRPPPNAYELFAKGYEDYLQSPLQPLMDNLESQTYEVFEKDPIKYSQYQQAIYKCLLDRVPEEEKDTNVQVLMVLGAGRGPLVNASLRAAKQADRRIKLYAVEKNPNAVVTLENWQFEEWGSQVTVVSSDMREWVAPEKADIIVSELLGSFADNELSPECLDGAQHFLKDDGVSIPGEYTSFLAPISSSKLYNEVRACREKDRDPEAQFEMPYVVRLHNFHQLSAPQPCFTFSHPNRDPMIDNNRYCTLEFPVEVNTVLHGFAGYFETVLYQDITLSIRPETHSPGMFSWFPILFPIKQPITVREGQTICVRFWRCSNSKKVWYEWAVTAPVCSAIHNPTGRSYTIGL
Cytochrome P450 2D6, sequence (P10635 whole entry): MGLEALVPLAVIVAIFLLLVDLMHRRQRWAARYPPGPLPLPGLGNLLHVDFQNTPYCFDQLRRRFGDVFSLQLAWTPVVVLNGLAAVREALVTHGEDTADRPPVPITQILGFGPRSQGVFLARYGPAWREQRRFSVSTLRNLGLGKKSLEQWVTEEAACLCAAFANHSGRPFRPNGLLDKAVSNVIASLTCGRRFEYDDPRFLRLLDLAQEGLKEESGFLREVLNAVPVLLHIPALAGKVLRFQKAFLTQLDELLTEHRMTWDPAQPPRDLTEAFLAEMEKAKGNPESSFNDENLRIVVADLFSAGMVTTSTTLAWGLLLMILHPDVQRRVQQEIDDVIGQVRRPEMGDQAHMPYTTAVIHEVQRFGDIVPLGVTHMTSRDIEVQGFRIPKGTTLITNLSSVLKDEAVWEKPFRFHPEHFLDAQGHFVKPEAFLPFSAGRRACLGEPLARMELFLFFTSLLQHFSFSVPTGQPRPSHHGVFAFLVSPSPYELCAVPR
Cytochrome P450 2C19, sequence (P33261 whole entry): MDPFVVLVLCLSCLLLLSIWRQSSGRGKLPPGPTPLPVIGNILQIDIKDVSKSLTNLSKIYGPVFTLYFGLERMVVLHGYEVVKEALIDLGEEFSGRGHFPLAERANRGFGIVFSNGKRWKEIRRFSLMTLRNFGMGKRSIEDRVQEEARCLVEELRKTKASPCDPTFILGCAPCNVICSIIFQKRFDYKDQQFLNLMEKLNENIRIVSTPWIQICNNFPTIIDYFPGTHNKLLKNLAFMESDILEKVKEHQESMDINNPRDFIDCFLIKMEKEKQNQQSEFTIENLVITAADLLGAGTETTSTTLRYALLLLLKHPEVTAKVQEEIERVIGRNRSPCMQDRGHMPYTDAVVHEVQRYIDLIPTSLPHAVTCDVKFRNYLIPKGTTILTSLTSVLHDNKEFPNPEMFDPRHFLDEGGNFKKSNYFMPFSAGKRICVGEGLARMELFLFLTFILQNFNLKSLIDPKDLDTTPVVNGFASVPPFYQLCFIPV
Cytochrome P450 2C8, sequence (P10632 whole entry): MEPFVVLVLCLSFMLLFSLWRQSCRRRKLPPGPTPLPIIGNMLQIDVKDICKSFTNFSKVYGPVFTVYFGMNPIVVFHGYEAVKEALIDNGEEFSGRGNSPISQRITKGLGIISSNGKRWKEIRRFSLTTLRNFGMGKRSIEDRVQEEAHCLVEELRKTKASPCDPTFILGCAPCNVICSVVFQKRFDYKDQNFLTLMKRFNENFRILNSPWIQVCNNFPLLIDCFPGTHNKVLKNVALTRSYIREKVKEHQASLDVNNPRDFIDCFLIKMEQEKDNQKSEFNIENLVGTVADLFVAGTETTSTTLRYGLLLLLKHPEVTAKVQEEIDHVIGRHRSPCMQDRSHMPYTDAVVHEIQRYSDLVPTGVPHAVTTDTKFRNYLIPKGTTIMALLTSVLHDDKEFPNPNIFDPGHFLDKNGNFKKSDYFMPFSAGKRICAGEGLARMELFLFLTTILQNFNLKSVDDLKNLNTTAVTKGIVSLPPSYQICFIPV
PRMT5/MEP50 complex (Homo sapiens, UniProt O14744+Q9BQA1), sequence (O14744 whole entry): as the sequence (O14744 whole entry) above
PRMT5/MEP50 complex (Homo sapiens, UniProt O14744+Q9BQA1), sequence (Q9BQA1 whole entry): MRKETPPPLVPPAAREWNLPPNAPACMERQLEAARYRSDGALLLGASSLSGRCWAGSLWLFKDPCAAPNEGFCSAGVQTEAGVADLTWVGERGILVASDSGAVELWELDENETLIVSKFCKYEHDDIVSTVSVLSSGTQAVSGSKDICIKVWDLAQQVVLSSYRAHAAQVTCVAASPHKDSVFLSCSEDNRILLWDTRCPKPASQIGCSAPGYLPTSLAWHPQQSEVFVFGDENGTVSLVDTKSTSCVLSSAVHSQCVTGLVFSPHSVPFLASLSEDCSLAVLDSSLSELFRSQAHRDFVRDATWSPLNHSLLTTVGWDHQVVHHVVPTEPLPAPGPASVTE
PRMT5/MEP50 complex (Homo sapiens, UniProt O14744), sequence (O14744 whole entry): as the sequence (O14744 whole entry) above
PRMT5/MEP50 complex (Homo sapiens, UniProt O14744), sequence (Q9BQA1 whole entry, further chain): as the sequence (Q9BQA1 whole entry) above

A word on the IC50: it is the concentration at which inhibition is half-maximal. In turn, `CC(=O)N1CCC(Nc2cc(C(=O)NC[C@H](O)CN3CCc4ccccc4C3)ncn2)CC1` [PEMRAMETOSTAT] came in with an IC50 in the series with Z-138 [1] of 25.8 nM.
Broadly, the half-life is the time in which the quantity being followed falls by half. One may read the Kd as a measure of binding affinity in units of concentration. Consider `CC(=O)N1CC2(CC(Nc3cc4c(cn3)C3(CC3)CN(C[C@H](O)CN3CCc5ccccc5C3)C4=O)C2)C1`, for which the fraction unbound is 0.04 in series [2], 0.0204 in [3] and 0.11 in series [12]. For the same compound, the IC50 was 30.1 nM with MOLM-13; over 50000 nM at Cytochrome P450 2C8; over 50000 nM against Cytochrome P450 2D6; 2.25 nM in the series with T47D; 72.3 nM in the series on A-427; over 50000 nM on Cytochrome P450 3A4 [13]. Also, the values for the IC50 against Cytochrome P450 2C19, against Cytochrome P450 3A4 [16] and in the series on NCI-H1299 were over 50000 nM, over 50000 nM and 55.6 nM, respectively. The Activity result in series [4], in series [8], in series [15], in series [17] and in series [18] was “Non-toxic” in each case. Further, the inhibition entry was “Active; More Potent Than Gsk3326595” in series [5] and “Dose-dependent-effect” in series [6]. The inhibition in vivo at 25 mg/kg with Z-138 [7] worked out at 106%. In addition, the values for the half-life at 1 µM in series [9] and in series [11] were 17.5 min and 83.6 min, respectively. Further, in the series with Z-138 [10], the inhibition in vivo at 50 mg/kg amounted to 106%. Moreover, the koff on PRMT5/MEP50 complex [14] is listed as 3.62 10^-2/s. The Kd on PRMT5/MEP50 complex [19] turned out to be 104 nM.
